Measured values: US12560054B2, “Use of carboxylates for carbon sequestration, improved oil recovery, and hydrogen storage and reproduction” (Board of Regents, The University of Texas System, priority 2021, dated 2026)
Read-outs that look alike come from different tables or passages of the source.

Legend:
[1] = 347 K
Experimental: Contact Angle Experiments. Contact angle experiments were performed on calcite surfaces and Eagle Ford shale plates. […] After cutting the plates in the appropriate sizes, they were polished with a diamond grinder to result in a smooth surface. […] The pH values of the chemical solutions were measured before and after the experiment. […] The final pH level was adjusted to correspond to the glycine solution at the same concentration. […] Then, to start the experiment, the rock pieces were immersed in the solution and then oil droplets were placed at the bottom of the rock pieces. The solution chambers were put in the oven for equilibration. Then, images of the oil droplets were taken. A new oil droplet was placed after a certain number of days and the images were taken after equilibration. Contact angles reported in figures are the equilibrium contact angles. For example, if data is reported from day 7, that data is the final equilibrated contact angle of the droplet placed on day 7. Contact angles were measured from photos with the on-screen protractor software.

[2] = 337 K
Experimental: Contact Angle Experiments. Contact angle experiments were performed on calcite surfaces and Eagle Ford shale plates. […] After cutting the plates in the appropriate sizes, they were polished with a diamond grinder to result in a smooth surface.
RB was made first by adding salts and adjusting the total mass of the solution to 1 kg with deionized water. […] The final pH level was adjusted to correspond to the glycine solution at the same concentration. […]
After being aged in heavy oil for at least 3 weeks, the calcite or shale pieces were retrieved, and the excess oil was removed from the surfaces carefully. Then, to start the experiment, the rock pieces were immersed in the solution and then oil droplets were placed at the bottom of the rock pieces. The solution chambers were put in the oven for equilibration. Then, images of the oil droplets were taken. A new oil droplet was placed after a certain number of days and the images were taken after equilibration. Contact angles reported in figures are the equilibrium contact angles. For example, if data is reported from day 7, that data is the final equilibrated contact angle of the droplet placed on day 7. Contact angles were measured from photos with the on-screen protractor software.
A similar procedure was followed for another set of experiments with Eagle Ford shale plates.

[3] = pH measurements before and after the contact angle experiments with calcite; assay type: physicochemical; conditions: room temperature; for pH After: after contact angle experiment with calcite; for pH Before: before contact angle experiment
Experimental: RB was made first by adding salts and adjusting the total mass of the solution to 1 kg with deionized water. […] For solutions with HCl, HCl was added to solutions of formate and acetate at room temperature while stirring slowly. […] After aqueous solutions were prepared and degassed, they were placed in an oven at the desired reservoir temperature (347 K for calcite and 337 for Eagle Ford shale).

[4] = with RB at reservoir and room temperatures
[5] = room temperature; cited from earlier work
[6] = Viscosity and density of formate solutions in NaCl+CaCl2 brine; assay type: physicochemical; conditions: solutions in the brine at 25, 50 and 75 °C over a wide range of shear rates
Experimental: Viscosity Measurements. […] A double wall couette geometry was used for the measurement. The viscosity measurements were taken at 25, 50, and 75° C. The sodium formate solutions were prepared and allowed to equilibrate in an oven set at the target temperature.
For viscosity measurements at 50 and 75° C., the temperature of the holding cup was raised to the target temperature using the circulating bath before putting the solution into the rheometer's sample holding cup.

[7] = near-saturated 45% (% w/w) sodium formate in water, 20 °C; cited from earlier work

## CC(=O)[O-].[Na+] [acetate, Sodium Acetate]
[1]; without HCl, in RB
  contact angle reduction on calcite: did not significantly reduce the contact angle
[2]; 5 wt % in RB with HCl
  final contact angle on Eagle Ford shale plates: approximately 60 °
[2]; 5 wt % in RB without HCl
  final contact angle on Eagle Ford shale plates: about 80 °
[3]; 0.5 wt % in RB
  pH After: 8.04
  pH Before: 8.15
[3]; 1 wt % in RB
  pH After: 7.89
  pH Before: 8.31
[3]; 2.5 wt % in RB
  pH After: 7.87
  pH Before: 8.44
[3]; 5 wt % in RB
  pH After: 7.85
  pH Before: 8.64
[4]
  aqueous stability: confirmed

## O=CO [formate]
[1]; with HCl (pH adjusted to glycine level), in RB
  contact angle on calcite: 50-60 °
[1]; without HCl, 0.5-5 wt % in RB
  contact angle on calcite: approximately 80 °
[2]; 5 wt % in RB with HCl
  final contact angle on Eagle Ford shale plates: approximately 60 °
[2]; 5 wt % in RB without HCl
  final contact angle on Eagle Ford shale plates: about 80 °
[3]; 0.5 wt % in RB
  pH After: 8.26
  pH Before: 8.07
[3]; 1 wt % in RB
  pH After: 8.22
  pH Before: 7.96
[3]; 2.5 wt % in RB
  pH After: 8.05
  pH Before: 8.12
[3]; 5 wt % in RB
  pH After: 7.96
  pH Before: 8.11
[4]
  aqueous stability: confirmed

## NCC(=O)O [glycine, reference compound]
[1]; 2.5 and 5 wt % in RB, reached over time
  contact angle on calcite: ~40 °
[2]; 5 wt % in RB without HCl
  final contact angle on Eagle Ford shale plates: 60 °
[3]; 0.5 wt % in RB
  pH After: 7.94
  pH Before: 6.68
[3]; 1 wt % in RB
  pH After: 7.73
  pH Before: 6.42
[3]; 2.5 wt % in RB
  pH After: 7.53
  pH Before: 6.24
[3]; 5 wt % in RB
  pH After: 7.62
  pH Before: 6.10
[5]
  isoelectric point (pI): 5.97

## O=C[O-].[Na+] [sodium formate]
[6]
  rheological behavior: Newtonian behavior
[7]
  reported viscosity: 9.5 cp
